Measured values from patent US11377393B2, “Method and composition for improving plant growth” (DANSTAR FERMENT AG, priority 2016, dated 2022).

Tested on: triticale (var. Bellac)
Assay: Effect of inactive yeast and/or yeast derivatives in combination with nitrogen sources on plant growth (pot test, dry weight of aerial parts)
Assay type: in vivo
Conditions: triticale seeds in 20 g soil, 30 days, nitrogen 15 kg/ha, applied liquid to soil, letters = significance groups (p<0,1 Dunnett)
Experimental: Seeds of triticale (var. Bellac) coated with insectide Gaucho 350 and fungicide Rédigo® (Bayer) were used in the study. The tested nitrogenous components were the following: urea and calcium nitrate.
Two seeds were grown in individual plastic pots or cells containing equal quantity of soil (20 g). The treatments T1 to T4, T6, T7, T9, T10 and T13 (see Table 1) were distributed randomly in lines, with each line comprising of all treatments. Treatments T1 to T4, T6, T7, T9, T10 and T13 were repeated seven times and the experiment was repeated twice over time.
The treatments T1 to T4, T6, T7, T9, T10 and T13 were applied, in a liquid form, directly in the soil surrounding the seeds. The treatments were mixed with sterile distilled water in a total 5 ml samples. For the negative control, 5 ml of sterile distilled water was added. Seeds were grown under controlled conditions for 30 days. Growth conditions were 18/15 C for 10/14 hours (day/night) and 70% RH. Growth measurements were taken by measuring length and dry weight of the aerial part of the plants.
The growth in weight of the plants (the dry weight of the aerial parts) for each treatment was compared by statistical analysis.

Compound	Dry weight gain average (Table 4, calcium nitrate series) [b]	Dry weight gain average (Table 5, urea series) [bc]
O=[N+]([O-])[O-].O=[N+]([O-])[O-].[Ca+2] [Treatment T4, Calcium nitrate]	0.106	–
NC(N)=O [Treatment T3, Urea]	–	0.153
